Assay results reported in PMC9170106, “Pre-clinical evaluation of LASSBio-1491: From in vitro pharmacokinetic study to in vivo leishmanicidal activity” (PLoS ONE, 2022).
Several values for one entry are separate records, joined by “and”; a condition that tells them apart may be missing. Identical values can stand only once.

Tests used:
PAMPA-BBB permeability = test: PAMPA-BBB permeability
Source text: The parallel artificial membrane permeability assay uses 96-well plate in a “sandwich” type system, where one plate overlaps the other (PAMPA). […] The lipid mixture that impregnates the PVDF filter has a different constitution for the permeability tests for the blood-brain barrier (Brain lipid from pig extract in dodecane) and gastro-intestinal tract (L-α soy phosphatidylcholine in dodecane). In the PAMPA BBB and TGI assays, the optical density values obtained in the reading at each selected wavelength, for each of the compounds were analyzed in comparison with the values of several controls. In the case of the BBB, these values were used to elaborate an equation and determine the permeability coefficient (Pe), using a previously elaborated spreadsheet, and, for the TGI, these values were used to determine the absorbed fraction (Fa%), both using the Excel® program.

Microsomal metabolism = assay type: in vitro ADME; details: rat liver microsomes, without NADPH regenerating system
[1] = test system: peritoneal macrophages infected with L. major LV39; test: Nitrite measurement (Griess reaction) in infected macrophages; assay type: cell-based, BALB/c mice; details: BALB/c macrophages infected with L. major LV39
Procedure: Briefly, female BALB/c mice (6 to 8 weeks old) received 1 mL sterile of 3% sodium thioglycolate by intraperitoneal route (i.p.) and were euthanized after 4 days. The intraperitoneal lavage was collected from the peritoneal cavity of mice using sterile PBS and cells were counted in a hemocytometer. Peritoneal adherent cells (macrophages) were plated at a concentration of 2 x 10^5 cells per well in 24-well culture plates containing glass coverslips. Subsequently, L. major promastigotes (harvested after the third passage) were added at a concentration of 2 x 10^6 parasites per well, aiming to infect the macrophages. […] After 24 hours in an incubator at 37 °C and 5% CO2, the coverslips were washed with PBS and stained with Giemsa-May Grünwald. The number of amastigotes in 100 macrophages was determined by counting using optical microscope (100x objective). Furthermore, the cell culture supernatant was also collected for nitrite measurement using the Griess reaction, an indirect way of determining the concentration of nitric oxide in the supernatant of infected macrophages from the experimental groups. The results obtained were expressed as the mean ± S.E.M. of the number of amastigotes or nitrite concentration from duplicate cultures of representative assays, with the data analyzed by ANOVA and Dunnett hoc tests, considering a significance level of p < 0.05. […]

Plasma stability = assay type: in vitro ADME, rat
Procedure: For analysis of plasma stability, the LASSBio-1491 in a final concentration of 5 μM from stock solution of 1 mM, was added in 50 μL of rat plasma solution diluted in 250 μL with PBS (pH 7.4) and was placed in a shaker at 37 °C under vigorous stirring for 0, 30, 60, 120 and 240 minutes. After each reaction time, 500 μL of cold methanol and 500 μL of cold acetonitrile containing 5 uM of methyl 1,1’biphenyl-4-carboxylate 5 μM (internal standard) were added to the wells to stop the reaction. The solution was mixed and centrifuged at 24500 x g for 15 min (Universal centrifuge 320R Hettich®). The supernatant (1 mL) was filtrated and placed in vials to be analyzed by HPLC-PDA, Shimadzu—LC20AD, Kromasil C-18 column (4.6 mm x 250 mm, 5 μm), SPD M20A diode array detector, flow 1 mL/min, mobile phase acetonitrile: water 1:1 (v/v) for LASSBio-1491 and acetonitrile: water 60:40 (v/v) for LASSBio-1736, for 20 minutes at 254 nm wavelength.

[2] = Aqueous solubility by UV spectroscopy; assay type: physicochemical; details: phosphate buffer solution, buffer solution pH 7.4, 37 °C
Procedure: The solubility assay was carried out by correlating the concentration with the absorbance obtained by ultraviolet. First, a stock solution of the compound was prepared by dissolving 1 mg in 20 mL of methanol, and then the wavelength of greatest absorption of each compound was obtained by scanning between wavelengths from 200 nm to 500 nm. From the stock solution, six dilutions were prepared (dilution factor: 2.5), and the absorbance reading was performed in quartz cuvettes (10 mm optical path) in the UV-VIS spectrophotometer (Femto 800XI) at the previously determined wavelength. With the values obtained, a calibration curve with linear regression was made, in which the linearity of the analytical method is observed, with values of correlation coefficient (p > 0.95).
The compound was dissolved in a phosphate buffer solution (pH 7.4), prepared according to the Brazilian Pharmacopoeia (Vol.1) to obtain a supersaturated solution. The supersaturated aqueous solution was kept under stirring for 4 hours at 37°C and then the sample was filtered on a 0.45 μm filter to carry out the reading at the corresponding wavelength of the compound. The solubility was then determined through the equation of the straight line obtained by the linear regression of the calibration curve of each compound [19].

L. major LV39 = test: In vivo activity against Leishmania major LV39 substrain; design: species or system BALB/c mice
Procedure: Thus, 6-week-old female BALB/c mice weighing approximately 20 g were used. […] Briefly, ketamine (80mg/kg) and xylazine (8 mg/kg) were simultaneously used to anesthetize the mice by intraperitoneal injection. The promastigotes of L. major LV39 substrain in the stationary phase, harvested after the third passage (obtained from parasites frozen), were inoculated subcutaneously at a concentration of 1x 10^5 parasites in the right ear of mice. […] The size of the lesions was measured using a pachymeter. Thiopental (150 mg/kg, i.p.) was used to euthanize the mice and the quantitative limiting-dilution assay was used to determine the parasite burden of infected ears and draining lymph nodes. The results obtained from experiments were expressed as the mean ± S.E.M. with the data analyzed (size of the lesions or parasite burden) by ANOVA and Dunnett hoc tests, considering a significance level of p < 0.05.

[3] = LASSBio-1491 10 μmol/Kg/day, glucantime 30 μmol/Kg/day x 28 days, i.p.

In the case of O=C(N/N=C/c1ccc([N+](=O)[O-])o1)NNC(=O)c1ccc(Cl)cc1 [LASSBio-1491], the Papp (PAMPA-BBB permeability; PAMPA) is reported as 2.96 ×10⁻⁶ cm/s, the Classification (PAMPA-BBB permeability; PAMPA-BBB) is reported as “CNS+/-” and the “Metabolism rate non co-factor” value (Microsomal metabolism) is reported as 10.87%. For the same compound, the “NO production (nitrite)” value [1] was “increased NO production”, the “Elimination rate constant (k)” value (Plasma stability; rat plasma) was 0.0006 and the t1/2 (Plasma stability; rat plasma) was 19.25 h. It also gave a Metabolism rate (Plasma stability; rat plasma, 5 μM, 37 °C, up to 240 min) of 15.11%, a half-life at 5 μM (Plasma stability; rat, rat plasma diluted with PBS, pH 7.4, rat plasma) of 28.9 h and a recovery at 5 μM (Plasma stability; rat, rat plasma diluted with PBS, pH 7.4, read-out: Recovery rate) of 88.5%. For the same compound, the solubility at 4 h [2] was 8.72 µM and 3.06 µg/mL, the lesion size (L. major LV39; [3]) was “reduced lesion size only between days 7 and 17” and the “parasite load in draining lymph node” value (L. major LV39; [3]) was “decreased parasite load”. The “parasite load in infected ear” value (L. major LV39; [3]) was “decreased parasite load” and the “times more efficient than glucantime” value (L. major LV39; similar effect at a dose three times lower) was 3 times.
